{
  "source": "patent US12466782B2",
  "about": "“Arylcyclohexylamine derivatives and process for preparing same” (Technische Hochschule Köln, priority 2020, dated 2025)",
  "origin": "cited, not measured here",
  "conditions": "mouse model",
  "data": [
    {"smiles": "NC1(c2ccccc2Cl)CCCC(O)C1=O", "note": "(stereo not shown) [6-hydroxynorketamine]", "values": [
      {"measurement": "dose at which an effect comparable to that of 10 mg/kg ketamine was observed", "result": "≥ 25", "unit": "mg/kg"}
    ]}
  ]
}
